Test [1] deals with HepG2 cells. The test is described as follows: Rotenone Oxygraph Assay (high-resolution respirometry of intact HepG2 cells). The format is cell-based, human. To be noted: for activation at 10 µM: Homo sapiens. As to the method: Example 15: Rotenone Oxygraph Assay (High-Resolution Respirometry of Intact HepG2 Cells)
The Oxygraph-2k (O2k, OROBOROS INSTRUMENTS, Austria) was used for measurements of respiration of intact cells. The respirometry was performed in Dulbecco's Modified Eagle Medium (DMEM) high glucose without supplements. All experiments were performed at 37° C.
HepG2 cells (ATCC collection code HB-8065™) were cultured in 10 cm^2 culture dishes in DMEM high glucose medium supplemented with 10% fetal bovine serum (FBS) and 100 units/mL penicillin and 100 μg/mL streptomycin until approximately 90% confluence was reached. Immediately prior to performing the respirometric assay, the cells were washed with media without FBS, trypsinized and resuspended in DMEM high glucose without FBS.
The final concentration of intact cells in the O2k-chamber was 0.5-10^6/mL. After stabilization of respiration, the Complex I inhibitor, rotenone, at 1 μM final concentration was added to inhibit electron flux via Complex I. Then, compound to be tested was added at 10 μM final concentration, and the change in respiration rate of intact cells was monitored. […]

The subject of test [2] is HepG2 human hepatocarcinoma cells. The test can be described thus: Rotenone ATP Assay (Complex I by-pass assay). The format is cell-based. As to the method: Example 13: Rotenone ATP Assay (a Complex I by-Pass Assay)
This assay has been adapted from Haefeli R H, Erb M, Gemperli A C, Robay D, Courdier Fruh I, et al. (2011) NQO1-Dependent Redox Cycling of Idebenone: Effects on Cellular Redox Potential and Energy Levels. PLoS ONE 6(3): e17963. HepG2 human hepatocarcinoma cells are co-incubated with the electron transport chain complex I toxin rotenone +/− compounds of interest and the corresponding effect on ATP synthesis is measured with a bioluminescent substrate.
The stock solutions of the test articles (See Table 1, below for a list of the test articles examined using this assay) were prepared in dimethyl sulfoxide (DMSO at 10 mM). Working stock solutions were prepared on the day of the experiment in glucose free, serum free Dulbecco's modified Eagles medium (DMEM) supplemented with 50 micromolar rotenone.
In brief, HepG2 cells were plated at 25,000 cells per well in low glucose (1 gram/Liter) DMEM medium+10% fetal calf serum and incubated for 24 hours. The following day, the media was decanted and subsequently replaced with glucose free/serum free DMEM which has been supplemented with 50 micromolar rotenone and compound of interest. Serial dilutions of compound were prepared in 3× dilutions beginning at 25 micromolar. The cells were incubated for 60 minutes in a humidified tissue culture incubator. Following incubation, ATP levels were quantified via bioluminescent assay (Promega […] Glo Assay kit) and readings were captured on a standard microplate reader.
ATP bioluminescence is plotted versus the log of compound of interest and data are used to generate EC50 values. Curve fitting is performed using a sigmoidal dose response curve fit function (GraphPad Prism software).
EC50 values were derived from seven-point dose response curves performed on n=3 technical replicates per dose. Robustness of curve fit was assessed as a quality control measure, with an R squared value of at least 0.80 being required for a successful curve fit. Compounds of interest showing an increase in ATP bioluminescence relative to vehicle control were verified in an independent biological replicate of n=3 technical replicates per dose.
This assay is a direct measure of the ability of compounds of interest to restore ATP production under conditions of inhibition of Complex I of the mitochondrial electron transport chain. As the majority of ATP produced via the electron transport chain is thought to derive from Complex I activity, significant impairment in Complex I function has dire biological consequences. Of note, Complex I mutations are thought to drive pathophysiology in multiple mitochondrial diseases, including Leigh syndrome and Leber's Hereditary Optic Neuropathy (LHON), while diminished Complex I activity and the resultant attenuation of ATP production has been shown in neurodegenerative diseases, including Friedreich's Ataxia, Parkinson's Disease and Huntington's Disease. In brief, most compounds were tested in the Rotenone Oxygraph Assay instead of this assay but only Idebenone was active amongst Omaveloxolone, Idebenone and Vatiquinone.

The subject of test [3] is GM03665 cells (fibroblasts from a subject with Friedreich's ataxia). The test can be described thus: RSL-3 Toxicity Assay (RSL-3 Assay). The format is cell-based, human. Conditions: for EC50: Homo sapiens, Fibroblast. An excerpt:
Example 14: RSL-3 Toxicity Assay (RSL-3 Assay)
This assay has been adapted from: Hinman, A., Holst, C. R., Latham, J. C., Bruegger, J. J., Ulas, G., McCusker, K. P., Amagata, A., Davis, D., Hoff, K. G., Kahn-Kirby, A. H., Kim, V., Kosaka, Y., Lee, E., Malone, S. A., Mei, J. J., Richards, S. J., Rivera, V., Miller, G., Trimmer, J. K., Shrader, W. D., “Vitamin E hydroquinone is an endogenous regulator of ferroptosis via redox control of 15-lipoxygenase”, (2018) PLoS ONE 13(8): e0201369.
In brief, GM03665 cells (Coriell Institute) were seeded in 96-well plates (Sarstedt) in DMEM cell culture media containing 10% Fetal Bovine serum and 1% Penicillin-Streptomycin (Pen-Strep) antibiotic mix at the amount of 2×10^4/mL (100 μL or 2×10^3 cells per well). Cells were left to rest overnight at 37° C. in a humidified atmosphere with 5% CO2 to allow attachment of the cells to the culture plate. Test compounds were prepared as DMSO stocks (10 mM) and were serially diluted in cell culture media to obtain 2× working solutions. Cell media was discarded and replaced by 50 μL of test compound solutions or cell media with vehicle for control wells. Within 15 minutes, 2× working solution (4 μM) of 1S,3R-RSL-3 (CAS #1219810-16-8, Sigma-Aldrich) (diluted from 5 mM DMSO stock in cell culture media) was added. Final reaction volume was 100 μL and final DMSO concentration in reaction was kept below 0.2% (v/v) and equal in all wells. Final RSL-3 concentration was 2 μM and test compound final concentrations in reaction were up to 1000 nM. After 24 hours of incubation cell viability was assessed by MTT test. MTT (Sigma-Aldrich) solution 1 mg/mL in IX PBS (pH=7.4) was prepared 1 hour before the assay and filtered through Filtropur S 0.2 filters (Sarstedt). Cell media with test compounds was discarded and 100 μL of MTT solution was added to cells. The plates were incubated for 2 hours at +37° C. Thereafter, the MTT solution was removed and 100 μL of isopropanol was added to dissolve sediment. Absorption at 570 and 650 nm was measured using Hidex Sense microplate reader.
Compounds A and B and idebenone were not examined in this assay. The data presented in Table 1 indicates omaveloxolone was not active in this assay but that vatiquinone was active.
Discussion—Both BSO and RSL-3 are frequently utilized to induce the regulated cell death pathway known as ferroptosis. Ferroptosis is thought to require the joint activity of iron catalyzed oxidative stress and lipid peroxidation and has been described in cell and animal models of multiple neurodegenerative diseases, including Friedreich's Ataxia, Huntington Disease, Parkinson Disease and Alzheimer's Disease. […] Of note, the results for Compounds C-I and K were favorable with respect to inhibition of ferroptotic cell death when either BSO or RSL3 were used as initiating stimulus, differentiating these compounds from omaveloxolone and idebenone.

Setting [4] is: intact HepG2 cells, rotenone 1 μM, compound 10 μM, increase in respiration rate.
The mark [5] stands for this setting: GM03665 cells, RSL-3 2 μM, 24 hours, MTT.

Structures are written as SMILES. Entries after “also recorded” stand apart in the source; their conditions may differ. Some results are limits rather than exact numbers.

Take `COC1=C(OC)C(=O)C(CCCCCCCCCC(F)(F)F)=C(C)C1=O` [Compound C, 2,3-dimethoxy-5-methyl-6-(10,10,10-trifluorodecyl)cyclohexa-2,5-diene-1,4-dione]: in test [1], the “Complex I by-pass activity in Rotenone Oxygraph Assay (in words)” value is on record as “effective in rescuing cells”. This compound displayed an activation at 10 µM in test [1] (setting [4]) of 63.9%. In addition, in test [2], the “Complex I by-pass activity in Rotenone ATP Assay (in words)” value was “effective in rescuing cells; also recorded: comparable to that of Idebenone”. Moreover, the EC50 in test [2] (Homo sapiens, 1 h, HepG2, 50 micromolar rotenone, 60 minutes, ATP bioluminescence) was determined as 1440 nM; in test [3] (setting [5]), 110 nM.

As to `COC1=C(OC)C(=O)C(CCCCF)=C(C)C1=O` [Compound J, 2-(4-fluorobutyl)-5,6-dimethoxy-3-methylcyclohexa-2,5-diene-1,4-dione], the “Complex I by-pass activity in Rotenone Oxygraph Assay (in words)” value in test [1] is “not that effective; also recorded: least active”. The activation at 10 µM in test [1] (setting [4]) was found to be 21.8%. Further, the “Complex I by-pass activity in Rotenone ATP Assay (in words)” value in test [2] is “not that effective”. Also, in test [3], the “protection against RSL-3 toxicity (in words)” value was “essentially inactive”. In test [3] (setting [5]), the EC50 was more than 1000 nM.

In the case of `CC1(C)CC[C@]2(NC(=O)C(C)(F)F)CC[C@]3(C)[C@H](C(=O)C=C4[C@@]5(C)C=C(C#N)C(=O)C(C)(C)[C@@H]5CC[C@]43C)[C@@H]2C1` [Omaveloxolone, reference compound], the “Complex I by-pass activity in Rotenone Oxygraph Assay (in words)” value in test [1] is “inactive”. The “Rotenone Oxygraph Assay % Increase” value in test [1] (setting [4]) was “Inactive”. Also, the “Complex I by-pass activity in Rotenone ATP Assay (in words)” value in test [2] is “inactive”. For the same compound, the “ATP Rotenone Assay EC50” value in test [2] (HepG2, 50 micromolar rotenone, 60 minutes, ATP bioluminescence) is “Inactive”. The “protection against RSL-3 toxicity (in words)” value in test [3] is “not active”. Besides, the “RSL-3 Assay EC50” value in test [3] (setting [5]) was “Inactive”.

In general, EC50 refers to the concentration that produces a half-maximal response.

These data come from US12037350B2, “Compositions and methods for the prevention and/or treatment of mitochondrial disease, including Friedreich's ataxia” (Stealth BioTherapeutics Inc., priority 2020, dated 2024).
